# Source: PMC5431342, “Discovery of an enzyme and substrate selective inhibitor of ADAM10 using an exosite-binding glycosylated substrate” (Scientific Reports, 2016)
# Assays:
# A549 cells = assay: Wound closure assay, A549; format: cell-based; conditions: A549, 10 µM
# Procedure: (§1) For live-cell analysis of scratch-induced wound closure, 2.5 × 10^4 MDA-MB-231 and A549 cells per well were seeded in collagen G (40 µg/mL) (Biochrom AG, Germany) coated 96-well plates near confluence and allowed to grow overnight in standard medium (DMEM supplemented with 10% FBS and 1% P/S). At confluence, cells were pretreated 2 h with mitomycin (10 µg/mL) (Medac, Germany) to block cell proliferation and washed with standard media. Afterwards, cells were incubated in the presence of inhibitor at the indicated concentrations or DMSO (0.1% vehicle). Subsequently, a defined scratch (wound width between 642–767 µm) was performed in each well using the certified Essen Bioscience automated 96-wound maker^TM (Essen Biosciences, Hertfordshire, UK) for 96 well-plates. The medium was removed and 100 µL standard medium were added to the wells containing either inhibitor or DMSO. The closure of the wounded area was monitored using the IncuCyte ZOOM system by taking images of each well every 2 h over a period of 24 h. The reduction of wound width was determined over time using the IncuCyte ZOOM microscope software 2014A. Data were expressed as percentage of wound closure after 8 h.
# MDA-MB-231 cells = assay: Wound closure assay, MDA-MB-231; format: cell-based; conditions: MDA-MB-231, 10 µM
# Procedure: as §1
# [1] = tested on: CCL2-induced migration of peripheral blood mononuclear cells (PBMC); assay: PBMC migration assay; format: cell-based; conditions: statistical significance not reached
# Procedure: For PBMC or primary human neutrophil chemotaxis assays, transwells with 8 or 5 µm pores were filled with 100 µL of cell suspension (1 × 10^6 cells in 100 µL DMEM + 0.2% BSA). Lower wells were filled with stimulus solution (3 nM CCL2 or 10 µg/mL CXCL8 (IL8) in assay buffer (RPMI + 0.2% BSA). After incubation of PBMCs for 2 h or neutrophils for 45 min, migrated cells were quantified in the lower well. For inhibitor studies, cells were pre-incubated in migration medium for 30 min and subsequently subjected to the migration experiment. Migrated neutrophils or PBMCs were quantified by measurement of endogenous glucuronidase activity as described.
# panel of metzincins = assay: Dose response against a panel of metzincins (MMP, meprin, ADAM assays); format: biochemical; conditions: reordered powder, dilutions starting at 100 µM
# Procedure: Powders for 4 compounds (CID # 3117694, 730037, 3153587, and 236330) were reordered from corresponding vendors and tested in 10-point, 1:3 serial dilutions starting at 100 µM in triplicate against ADAM10 and ADAM17 and a panel of metzincins. We examined the activity and selectivity of lead CID 3117694 using an ADAM10 and 17 HPLC-based assays using glycosylated substrate (Fig. 2A).
# All assays followed the same general protocol. 5 µL of 2x enzyme solution (5 nM) in assay buffer (50 mM Tricine, 50 mM NaCl, 10 mM CaCl2, 0.05% Brij-35, pH 7.5) were added to solid bottom black 384 plates (Nunc, cat# 264705). Next, test compounds and pharmacological controls were added to corresponding wells using a 384 pin tool device (V&P Scientific, San Diego). […] Reactions were incubated at RT for 1 h, after which the fluorescence was measured using the Synergy H4 multimode microplate reader (Biotek Instruments) (λexcitation = 324 nm, λemission = 390 nm).
# Both assays followed the same general protocol. […] After 30 min incubation at RT, the reactions were started by addition of 5 µL of 2x solutions of substrates (20 µM, mepin α Mca-YVADAPK-K(Dnp); and for meprin β Mca-EDEDED-K(Dnp). Reactions were incubated at RT for 1 h, after which the fluorescence was measured using the Synergy H4 multimode microplate reader (Biotek Instruments) (λexcitation = 324 nm, λemission = 390 nm).
# ADAM17 = target: T1, ADAM17 (Homo sapiens, UniProt P78536); assay: ADAM17 glycosylated substrate uHTS/HTS assay; format: biochemical; conditions: original uHTS dose response, 10-point 1:3 dilutions starting at 70 µM
# T1 construct: purchased R&D Systems 930-ADB
# Procedure: Both assays followed the same general protocol. […] After 30 min incubation at RT, the reactions were started by addition of 2.5 µL of 2x solutions of glycosylated substrate (20 µM). Reactions were incubated at RT for 2 h, after which the fluorescence was measured using Perkin Elmer Viewlux multimode microplate imager (λexcitation = 360 nm, λemission = 460 nm). Final concentration of test compounds in assays was 7.0 µM.
# The miniaturized 1536-well plate format ADAM10 and ADAM17 assays were used to screen a collection of ≈370,000 compounds (MLSMR library, provided by the NIH) on the automated Kalypsys/GNF platform at the Scripps Research Institute Molecular Screening Center (SRIMSC, Jupiter, FL. More details at http://hts.florida.scripps.edu/). […] Both uHTS campaigns were run separately but in a similar manner. Briefly, the first step was the primary screen of all MLSMR’s test compounds as singlicate against the ADAM10 or ADAM17 target at a final concentration of 7.0 μM. Next, compounds selected as primary hits were cherry-picked and retested in triplicate against the primary screen target and its anti-target (ADAM17 for the ADAM10 screening effort, and vice-versa) at the same final concentration of 7.0 μM. […] All data generated during this effort were uploaded to the SRIMSC’s institutional screening database (Assay Explorer, Symyx). Sample to background (S/B) ratios, as well as Z and Z′ values were calculated on a per-plate basis as described before. Curve fitting and resulting IC50 determinations were performed as previously reported.
# T1 sequence (P78536 215-824): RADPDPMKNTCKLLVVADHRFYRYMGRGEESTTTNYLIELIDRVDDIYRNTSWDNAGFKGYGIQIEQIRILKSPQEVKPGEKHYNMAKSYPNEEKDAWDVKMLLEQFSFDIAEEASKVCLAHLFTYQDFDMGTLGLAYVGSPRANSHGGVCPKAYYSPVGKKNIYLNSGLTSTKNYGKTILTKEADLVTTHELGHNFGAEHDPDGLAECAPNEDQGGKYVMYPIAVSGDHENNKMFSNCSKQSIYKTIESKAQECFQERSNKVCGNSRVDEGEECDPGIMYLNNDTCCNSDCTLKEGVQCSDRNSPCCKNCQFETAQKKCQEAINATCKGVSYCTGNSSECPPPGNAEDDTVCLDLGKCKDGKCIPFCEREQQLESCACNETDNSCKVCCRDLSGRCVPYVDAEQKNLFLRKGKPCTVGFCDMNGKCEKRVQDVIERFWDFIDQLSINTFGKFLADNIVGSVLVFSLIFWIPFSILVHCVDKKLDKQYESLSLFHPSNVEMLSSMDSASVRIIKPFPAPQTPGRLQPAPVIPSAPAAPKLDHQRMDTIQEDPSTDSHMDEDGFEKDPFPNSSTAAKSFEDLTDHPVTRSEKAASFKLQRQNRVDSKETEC
structure (smiles),measurement,setting,value
COc1cccc(C(=O)NNC(=O)C(=O)Nc2ccc(C)c(Cl)c2)c1 [CID 3117694],effect on wound healing,A549 cells,significantly decreased wound healing
same,effect on wound healing,MDA-MB-231 cells,significantly decreased wound healing
same,inhibition of PBMC migration,[1],approximately 50%
same,inhibition of 11 tested metzincins (including ADAM10 and ADAM17),panel of metzincins,only ADAM10 was appreciably inhibited
same,IC50,ADAM17,> 70 µM
